Results taken from US20140096445A1, “METHOD OF CULTIVATION IN WATER DEFICIT CONDITIONS” (SYNGENTA PARTICIPATIONS AG, priority 2011, published 2014).

Experiments:
Format in all cases: in vivo
corn [1] = assay: Lateral-move sprinkler irrigation field study, 112 day maturity corn hybrid, Examples 24-25; details: 250 gai/ha, 60% irrigated deficit
Method: Testing Procedure: A sprinkler irrigation field study was conducted on a deep silt loam soil using a 112 day maturity corn hybrid. This trial was conducted to quantify the impact of azoxystrobin and trinexapac-ethyl on grain yield, and water productivity of corn under limited (deficit) and fully-irrigated settings. The study utilized a lateral-move sprinkler irrigation (LMS) system. The study was replicated three times in an […]. Each main plot was approximately 185 sq. meters. Irrigation control panels, chemical injection pumps, and filters were housed at the irrigation well house to manage irrigation and chemigation events.
Soil water status was monitored throughout the growing season using soil moisture sensors. Corn seed was planted with a precision planter at a depth of 2 inches and rows spaced at 30 inches. The planting population was 30,000 seeds per acre. Testing parameters, and irrigation levels were conducted according to the Kansas State University experimental procedure [see e.g., (1) Lamm, F. R., A. J. Schlegel, and G. A. Clark. 2003. Development of a Best Management Practice for Nitrogen Fertigation of Corn Using SDI. Appl. Engr in Agric. and (2) Lamm, F. R., H. L. Manges, L. R. Stone, A. H. Khan, and D. H. Rogers. 1995. Water requirement of subsurface drip-irrigated corn in northwest Kansas. Trans. ASAE, 38(2):441-448.]. Moisture levels, irrigation levels, evapotranspiration, and plant health were measured throughout the growing season. Climatic variables were measured (air temperature, rainfall, solar and net radiation, relative humidity, rainfall, wind speed and direction) throughout the season. Irrigation for the fully irrigated treatments was scheduled according to need by a climatic water budget using calculated evapotranspiration as a withdrawal and with rainfall and irrigation as deposits. Irrigation amounts for each event for the fully irrigated plots were generally 0.96 inches for each event. The deficit irrigation treatments were scheduled at approximately 60% of the fully irrigated plots. Volumetric soil water content was measured in one-foot increments to a depth of 8 ft on an approximately weekly basis throughout the crop season to determine total water use. Crop water use was calculated as the sum of irrigation, precipitation and changes in soil water between the initial and final soil water sampling dates. Water productivity (WUE) was calculated as the crop yield divided by the seasonal water use (Water Productivity (WP)=Yield/ETc). […] Crop yield from each replication was recorded after harvest and adjusted to 15% moisture content. Corn yield components of crop grain yield, plants/area, ears/plant, and kernel weight were measured by hand harvesting a representative sample.

soybean = assay: Lateral-move sprinkler irrigation field study on soybean, Examples 29-30; details: for % IWUE Increase over Untreated / % Seed Mass Increase over Untreated / % Yield Increase over Untreated / IWUE (water productivity) / Seed Mass / Yield: foliar 150 gai/ha, average of 60% & 100% irrigated
corn [2] = assay: SDI split plot field study, 115 day maturity corn hybrid, deficit vs fully irrigated, Example 3; details: 261 gai/ha, 50% irrigated deficit
corn [3] = assay: Lateral-move sprinkler irrigation field study, 113 day maturity corn hybrid, Examples 11-12; details: 261 gai/ha, 60% irrigated deficit

CCOC(=O)C1CC(=O)C(=C(O)C2CC2)C(=O)C1 (centres unmarked) [TXP, trinexapac-ethyl]
% IWUE Increase over Untr./60% irr. (corn [1]): +5% over
% Yield Increase over Untr./60% irr. (corn [1]): +3.5% over
IWUE (water productivity) (corn [1]): 484 lbs/acre inch
Yield (corn [1]): 209 Bu./acre

CO/C=C(/C(=O)OC)c1ccccc1Oc1cc(Oc2ccccc2C#N)ncn1 [Azoxystrobin, azoxystrobin]
Seed mass, statistical statement (soybean; all Quadris treatments): Statistically significant difference in seed mass
% IWUE Increase over Untreated (soybean; one application): +2% over
% Seed Mass Increase over Untreated (soybean; one application): +3% over
% Yield Increase over Untreated (soybean; one application): +2% over
IWUE (water productivity) (soybean; one application): 129 lbs/acre-inch
Seed Mass (soybean; one application): 148a mg
Yield (soybean; one application): 48.4 Bu./acre
Water productivity, in words (soybean; soybean, sprinkler irrigation): increase in water productivity
% IWUE Increase over Untreated (soybean; two applications): +6% over
% Seed Mass Increase over Untreated (soybean; two applications): +6% over
% Yield Increase over Untreated (soybean; two applications): +5% over
IWUE (water productivity) (soybean; two applications): 133 lbs/acre-inch
Seed Mass (soybean; two applications): 151a mg
Yield (soybean; two applications): 49.7 Bu./acre
Yield (corn [2]; foliar twice (V8 & V8+14da.)): 250 Bu./acre
Azoxystrobin % IWUE Increase over Untr./50% Irr. (corn [2]; foliar): +3% incr. over
Azoxystrobin % IWUE Increase over Untr./100% Irr. (corn [2]; foliar): +7% incr. over
Azoxystrobin % Yield Increase over Untr./50% Irr. (corn [2]; foliar): +3% incr. over
Azoxystrobin % Yield Increase over Untr./100% Irr. (corn [2]; foliar): +0% incr. over
IWUE (water productivity) (corn [2]; foliar): 494 lbs./acre in.
Azoxystrobin % IWUE Increase over Untr./60% irr. (corn [3]; chemigated): +11% over
Azoxystrobin % Yield Increase over Untr./60% irr. (corn [3]; chemigated): +5% over
IWUE (water productivity) (corn [3]; chemigated): 515 lbs/acre inch
Yield (corn [3]; foliar applied (V6 & R1)): 239 Bu./acre
Azoxystrobin % IWUE Increase over Untr./60% irr. (corn [3]; foliar applied): +16% over
Azoxystrobin % Yield Increase over Untr./60% irr. (corn [3]; foliar applied): +7% over
IWUE (water productivity) (corn [3]; foliar applied): 540 lbs/acre inch
Yield (corn [3]; sprinkler chemigated (V6 & R1)): 236 Bu./acre
